Laboratory results: patent CN101879305A, “血清胸腺因子在制备抗肿瘤药物、肿瘤物理及化学治疗药物的保护药物方面的用途” (priority 2007, dated 2010)
Ends that are not written are not given here.

Legend:
[1] = Immune indicators in Co60-irradiated mice (white cell count, carbon clearance, organ indices) (Example 8); format: in vivo, 昆明鼠; conditions: 650 rad Co60, after one week
EAC腹水瘤 = assay: Anti-tumour test, EAC ascites tumour in mice (Example 1); format: in vivo, 昆明小鼠; conditions: positive control 5-氟尿嘧啶 25mg·kg-1, every other day, three times
H22实体瘤 = assay: Anti-tumour test, H22 solid tumour in mice (Example 2); format: in vivo, 昆明小鼠; conditions: positive control 环磷酰胺 20mg·kg-1, single dose
Walker-256瘤 = assay: Anti-tumour test, Walker-256 tumour in rats (Example 3); format: in vivo, Wistar大鼠; conditions: positive control 环磷酰胺 89.2mg.kg-1, single dose
人肝癌Heps瘤 = assay: Anti-tumour test, human liver cancer Heps xenograft in nude mice (Example 4); format: in vivo, 裸鼠; conditions: positive control 环磷酰胺 10mg·kg-1, single dose
[2] = Acute toxicity, single tail-vein injection, 7-day observation (Example 7); format: in vivo, 昆明小鼠; conditions: for 死亡(%): 20 mice, 7 days; for 给药前体重: before dosing (baseline)

C#C[C@]1(O)[C@H](O)C[C@H]2[C@@H]3CCc4cc(OC5CCCC5)ccc4[C@H]3CC[C@@]21C [尼尔雌醇]
体重增加 ([1]; positive control 尼尔雌醇 0.05mg/只 single gavage): 3.47
吞噬指数α ([1]; 尼尔雌醇 0.05mg/只 single gavage): 6.00
廓清指数K ([1]; 尼尔雌醇 0.05mg/只 single gavage): 0.033
白细胞个数(个/mm3) ([1]; 尼尔雌醇 0.05mg/只 single gavage): 2693 个/mm3
胸腺指数(mg/10g) ([1]; 尼尔雌醇 0.05mg/只 single gavage): 28.32 mg/10g
脾指数(mg/10g) ([1]; 尼尔雌醇 0.05mg/只 single gavage): 8.96 mg/10g

O=c1[nH]cc(F)c(=O)[nH]1 [5-氟尿嘧啶]
生存时间(天) (EAC腹水瘤): 24.3±4.1 天
生命延长率 (EAC腹水瘤; vs blank group): 82.7 %

C#C[C@]1(O)[C@H](O)C[C@H]2[C@@H]3CCc4cc(OC5CCCC5)ccc4[C@H]3CC[C@@]21C [环磷酰胺]
实体瘤的重量 (H22实体瘤): 0.6 ± 0.5 g
抑瘤率 (H22实体瘤; vs blank group): 84.8 %
肿瘤的重量 (Walker-256瘤): 2.6 ± 1.7 g
抑瘤率(%) (Walker-256瘤; vs blank group): 85.4 %
抑瘤率 (人肝癌Heps瘤): 62.43 %
肿瘤的体积(mm3) (人肝癌Heps瘤): 99.73±68.60 mm3
肿瘤的重量 (人肝癌Heps瘤): 0.57 ± 0.12 g

EAKSQGGSN [FTS, Glu-Ala-Lys-Ser-Gln-Gly-Gly-Ser-Asn]
死亡(%) ([2]; 5.0 mg/kg (0.5 mg/ml) i.v. tail vein once): 0 %
给药前体重 ([2]; 5.0 mg/kg group): 22.3 ± 2.1 g
死亡(%) ([2]; 10.0 mg/kg (1.0 mg/ml) i.v. tail vein once): 0 %
给药前体重 ([2]; 10.0 mg/kg group): 23.4 ± 3.1 g
死亡(%) ([2]; 50.0 mg/kg (5.0 mg/ml) i.v. tail vein once): 0 %
给药前体重 ([2]; 50.0 mg/kg group): 23.6 ± 2.5 g
死亡(%) ([2]; 100.0 mg/kg (10.0 mg/ml) i.v. tail vein once): 0 %
给药前体重 ([2]; 100.0 mg/kg group): 23.1 ± 2.8 g
毒性反应或死亡 ([2]; 5.0, 10.0, 50.0 and 100.0 mg/kg groups, i.v.): 未发现任何毒性反应或死亡
